Test results from patent US9537110B2, “Chalcogen-containing organic compound and use thereof” (JNC CORPORATION, priority 2012, dated 2017).
Converted amounts (≈) assume the structure as drawn. Where two headings read alike, the source gives them in different places.

Key:
[1] = Evaluation of chemical stability by UV-Vis spectrum; type: physicochemical
Method: Then, 0.6951 mg of the compound synthesized in Example 3 was weighed, and dissolved into degassed benzonitrile (25 mL) using a measuring flask in a glove box (solution concentration: 4.92×10^−5 M). A prepared solution thereof was put into a UV cell with a cover, and a UV-Vis spectrum (device used: Jasco V-570 Spectrometer, made by JASCO Corporation) was immediately measured. Subsequently, opening and closing of the cover were repeated several times under atmospheric air to bring the solution into contact with oxygen in air.
Moreover, a film having a thickness of 100 nanometers formed by performing vacuum deposition of the compound synthesized in Example 3 was allowed to stand for one week in atmospheric air. The results obtained by measuring UV-Vis spectra (device used: Jasco V-570 Spectrometer, made by JASCO Corporation) over time during the period are shown in FIG. 6.

[2] = Solubility evaluation in organic solvents; type: physicochemical; settings: room temperature; for solubility: organic solvent or mixture
Method: Solubility of the compound was evaluated. As a result, under room temperature, the compound was dissolved into chloroform at 381 g/L (20.5 wt. %), and into toluene at 137 g/L (13.6 wt. %). The compound is clearly found to show high solubility in any of solvent to allow use in an application process.
Solubility of the compound was evaluated. As a result, under room temperature, the compound was dissolved into chloroform at 43 g/L (2.8 wt. %), and into toluene at 23 g/L (2.6 wt. %). The compound is clearly found to show high solubility in any of solvent to allow use in an application process.

[3] = chloroform, read-out: Solubility in chloroform
[4] = toluene, read-out: Solubility in toluene

Question: With c1ccc2cc3c(cc2c1)sc1cc2ccccc2cc13 [Comparative Example 1, dinaphtho[2,3-b:2′,3′-d]thiophene] as the compound, how does the melting point read?
Answer: 282 to 283 °C

Question: Which melting point does the source give for CCCCCCCCCCc1ccc2cc3oc4cc5ccc(CCCCCCCCCC)cc5cc4c3cc2c1 [Example 1, 2,10-didecyldinaphtho[2,3-b:2′,3′-d]furan] here?
Answer: 175 to 176 °C

Question: With CCCCCCCCCCc1ccc2cc3sc4cc5ccc(CCCCCCCCCC)cc5cc4c3cc2c1 [Example 2, 2,10-didecyldinaphtho[2,3-b:2′,3′-d]thiophene] as the compound, how does the melting point read?
Answer: 122 to 123 °C

Question: With CCCCCCCCCCc1ccc2cc3c(cc2c1)oc1cc2cc(CCCCCCCCCC)ccc2cc13 [Example 3, 3,9-didecyldinaphtho[2,3-b:2′,3′-d]furan] as the compound, how does the “Change of UV-Vis spectrum of solution” value ([1]; benzonitrile solution 4.92×10^−5 M, contact with oxygen in air, 3, 24 and 72 hours) read?
Answer: no change of the spectrum was observed

Question: What about the “Chemical stability (conclusion)” value ([1]; solution and film in air) of the same compound?
Answer: chemically stable

Question: What about the “Change of UV-Vis spectrum of film” value ([1]; vacuum-deposited film 100 nanometers, one week in atmospheric air) of the same compound?
Answer: no change of the spectrum was observed

Question: What about the melting point of the same compound?
Answer: 216 to 217 °C

Question: Which melting point does the source give for CCCCCCc1ccc2cc3c(cc2c1)oc1cc2cc(CCCCCC)ccc2cc13 [Example 5, 3,9-dihexyldinaphtho[2,3-b:2′,3′-d]furan] here?
Answer: 198.7 to 199.1 °C

Question: For CCCCCCCCCCc1ccc2cc3c(cc2c1)sc1cc2cc(CCCCCCCCCC)ccc2cc13 [Example 6, 3,9-didecyldinaphtho[2,3-b:2′,3′-d]thiophene], which melting point is on record?
Answer: 182 to 183 °C

Question: With CCCCCCc1ccc2cc3c(cc2c1)sc1cc2cc(CCCCCC)ccc2cc13 [Example 7, 3,9-dihexyldinaphtho[2,3-b:2′,3′-d]thiophene] as the compound, how does the melting point read?
Answer: 202 to 202.4 °C

Question: Which melting point does the source give for CCCCCCCCc1ccc2cc3c(cc2c1)sc1cc2cc(CCCCCCCC)ccc2cc13 [Example 8, 3,9-dioctyldinaphtho[2,3-b:2′,3′-d]thiophene] here?
Answer: 193.7 to 194.8 °C

Question: Which solubility [2, 3] does the source give for CCCCCCCCc1cc2oc3cc(CCCCCCCC)c4ccccc4c3c2c2ccccc12 [Example 18, 5,9-dioctyldinaphtho[2,1-b:1′,2′-d]furan] here?
Answer: 381 mg/mL (≈ 773 mM)

Question: What about the solubility [2, 4] of the same compound?
Answer: 137 mg/mL (≈ 278 mM)

Question: What about the Solubility in chloroform ([2]; chloroform) of the same compound?
Answer: 20.5 wt. %

Question: What about the Solubility in toluene ([2]; toluene) of the same compound?
Answer: 13.6 wt. %

Question: What does the source list for c1ccc(-c2cc3oc4cc(-c5ccccc5)c5ccccc5c4c3c3ccccc23)cc1 [Example 20, 5,9-diphenyldinaphtho[2,1-b:1′,2′-d]furan]?
Answer: solubility [2, 3]: 43 mg/mL (≈ 102 mM); solubility [2, 4]: 23 mg/mL (≈ 54.7 mM); Solubility in chloroform ([2]; chloroform): 2.8 wt. %; Solubility in toluene ([2]; toluene): 2.6 wt. %
